Legend:
USP7 = target: T1, USP7 (Homo sapiens, UniProt Q93009, C315A); assay: Inhibition of USP7 by Fluorescence Intensity (FLINT) readings, Ubiquitin-Rhodamine-110 substrate; type: biochemical; conditions: 0.25 nM His-His-USP7 (aa208-560), 60 minutes at 30° C. preincubation; Ki determined from IC50 according to Cer et al.
T1 construct: 0.25 nM His-His-USP7 (aa208-560, |C315A|) was incubated with compound; His-His (N)
Summary of the method: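 His-tagged USP7 (aa208-560, C315A), 0.25 nM, preincubated with compound 60 min at 30 °C in 100 mM Bicine pH 8.0, 0.01% Triton X-100, 1 mM TCEP, 10% DMSO. Ubiquitin-Rhodamine-110 (50 nM or 4 μM) added; kinetic fluorescence (Ex 485/Em 535 nm) over 21 min; IC50 from 11-point curves, Ki derived from IC50.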

[1] = tested on: Z138 mantle cell lymphoma tumour cell lines; assay: In vitro cytotoxicity, MTT assay; type: cell-based; conditions: Z138 cells, exposed to the test compounds for 96 hours
Summary of the method: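 Z138 cells exposed to compounds for 96 hours, then MTT added for 4 hours. Formazan absorbance at 540 nm serves as the measure of viable cell number.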

T1 sequence (Q93009 208-560 C315A): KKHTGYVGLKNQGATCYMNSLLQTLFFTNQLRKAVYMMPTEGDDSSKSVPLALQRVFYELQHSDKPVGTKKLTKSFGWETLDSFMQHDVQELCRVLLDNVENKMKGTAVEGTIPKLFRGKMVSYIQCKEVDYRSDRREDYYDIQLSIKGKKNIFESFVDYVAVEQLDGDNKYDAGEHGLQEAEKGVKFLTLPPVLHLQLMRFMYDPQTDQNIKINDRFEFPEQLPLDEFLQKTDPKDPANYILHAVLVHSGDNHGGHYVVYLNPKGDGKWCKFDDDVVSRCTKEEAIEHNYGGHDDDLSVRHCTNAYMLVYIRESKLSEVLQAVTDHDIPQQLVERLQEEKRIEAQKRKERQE

Compound	Ki (USP7)	IC50 ([1]; Homo sapiens, Z-138)	IC50 [1]
COc1cc(Oc2ncn(C[C@@]3(O)CCN(C(=O)[C@@H]4CCN(Cc5ccnc(C)n5)C[C@H]4c4ccccc4)CC3(F)F)c(=O)c2N)ccc1C1CC1 [Example 188, 5-amino-6-(4-cyclopropyl-3-methoxy-phenoxy)-3-[[(4S)-3,3-difluoro-4-hydroxy-1-[(3R,4R)-1-[(2-methylpyrimidin-4-yl)methyl]-3-phenyl-piperidine-4-carbonyl]-4-piperidyl]methyl]pyrimidin-4-one]	69.9 nM	69 nM	–
5-amino-3-[[(3SR,4RS)-3-fluoro-4-hydroxy-1- (3R,4R)-1-[4-methyl-2-(6-methyl-3-pyridyl)thiazole-5-carbonyl]-3-phenyl-piperidine-4carbonyl]-4-piperidyl]methyl]-6-(4-fluorophenoxy)pyrimidin-4-one and 5-amino-3-[[(3RS,4SR)-3-fluoro-4-hydroxy-1-(3R,4R)-1-[4-methyl-2-(6-methyl-3-pyridyl)thiazole-5-carbonyl]-3-phenyl-piperidine-4-carbonyl]-4-piperidyl]methyl]-6-(4-fluorophenoxy)pyrimidin-4-one [Example 197]	14 nM	–	9.7 nM
Cc1nc(-c2ccccc2)sc1C(=O)N1CC[C@@H](C(=O)N2CCC(O)(Cn3cnc(Oc4ccc(F)cc4)c(N)c3=O)CC2)[C@H](c2ccccc2)C1 [Example 66, 5-amino-6-(4-fluorophenoxy)-3-({4-hydroxy-1-[(3R,4R)-1-(4-methyl-2-phenyl-1,3-thiazole-5-carbonyl)-3-phenylpiperidine-4-carbonyl]piperidin-4-yl}methyl)pyrimidin-4(3H)-one]	6.5 nM	4.5 nM	–
NCc1ccc(Oc2ncn(C[C@@]3(O)CCN(C(=O)[C@@H]4CCN(C(=O)c5cc(Cl)cc(Cl)c5)C[C@H]4c4ccccc4)CC3(F)F)c(=O)c2N)cc1 [Example 222, 5-amino-6-[4-(aminomethyl)phenoxy]-3-[[(4S)-1-[(3R,4R)-1-(3,5-dichlorobenzoyl)-3-phenyl-piperidine-4-carbonyl]-3,3-difluoro-4-hydroxy-4-piperidyl]methyl]pyrimidin-4-one]	0.558 nM	74.2 nM	–
Nc1c(Oc2ccc(F)cc2)ncn(CC2(O)CCN(C(=O)[C@@H]3CCN(C(=O)c4cccc(Br)c4)C[C@H]3c3ccccc3)CC2)c1=O [Example 31, 5-amino-3-({1-((3R,4R)-1-(3-bromobenzoyl)-3-phenylpiperidine-4carbonyl]-4-hydroxypiperidin-4-yl)methyl)-6-(4-fluorophenoxy)pyrimidin-4(3H)-one]	9.15 nM	5.45 nM	–
Cc1ccc(-c2sc(C(=O)N3CC[C@@H](C(=O)N4CCC(O)(Cn5cnc(Oc6ccc(F)cc6)c(N)c5=O)CC4)[C@H](c4ccccc4)C3)c3c2OCCO3)cn1 [Example 68, 5-amino-6-(4-fluorophenoxy)-3-[(4-hydroxy-1-{(3R,4R)-1-[7-(6-methylpyridin-3-yl)-2,3-dihydrothieno[3,4-b][1,4]dioxine-5-carbonyl]-3-phenylpiperidine-4-carbonyl]piperidin-4-yl)methyl]pyrimidin-4(3H)-one]	4 nM	6.67 nM	–
Cc1nc(-c2ccc(C(F)(F)F)nc2)sc1C(=O)N1CC[C@@H](C(=O)N2CCC(O)(Cn3cnc(Oc4cccc(C(F)(F)F)c4)c(N)c3=O)CC2)[C@H](c2ccccc2)C1 [Example 125, 5-amino-3-[[4-hydroxy-1-[(3R,4R)-1-[4-methyl-2-[6-(trifluoromethyl)-3-pyridyl]thiazole-5-carbonyl]-3-phenyl-piperidine-4-carbonyl]-4-piperidyl]methyl]-6-[3-(trifluoromethyl)phenoxy]pyrimidin-4-one]	7.98 nM	26.6 nM	–
Cc1cncc(CN2CC[C@@H](C(=O)N3CC[C@](O)(Cn4cnc(Oc5ccc(F)cc5)c(N)c4=O)C(F)(F)C3)[C@H](c3ccccc3)C2)n1 [Example 207, 5-amino-3-[[(4S)-3,3-difluoro-4-hydroxy-1-[(3R,4R)-1-[(6-methylpyrazin-2-yl)methyl]-3-phenyl-piperidine-4-carbonyl]-4-piperidyl]methyl]-6-(4-fluorophenoxy)pyrimidin-4-one]	27.4 nM	11.8 nM	–
Cc1nc(Br)sc1C(=O)N1CC[C@@H](C(=O)N2CCC(O)(Cn3cnc(Oc4cccc(C(F)(F)F)c4)c(N)c3=O)CC2)[C@H](c2ccccc2)C1 [Example 100, 5-amino-3-[[1-[(3R,4R)-1-(2-bromo-4-methyl-thiazole-5-carbonyl)-3-phenyl-piperidine-4-carbonyl]-4-hydroxy-4-piperidyl]methyl]-6-[3-(trifluoromethyl)phenoxy]pyrimidin-4-one]	24 nM	47.6 nM	–
COc1cc(Cl)cc(Oc2ncn(CC3(O)CCN(C(=O)[C@@H]4CCN(C(=O)c5sc(-c6ccc(C)nc6)nc5C)C[C@H]4c4ccccc4)CC3)c(=O)c2N)c1 [Example 23, 5-amino-6-(3-chloro-5-methoxyphenoxy)-3-((4-hydroxy-1-((3R,4R)-1-[4-methyl-2-(6-methylpyridin-3-yl)-1,3-thiazole-5-carbonyl]-3-phenylpiperidine-4-carbonyl}piperidin-4-yl)methyl]pyrimidin-4(3/I)-one]	7.46 nM	2.77 nM	–
Nc1c(Oc2ccc(F)cc2)ncn(CC2(O)CCN(C(=O)[C@@H]3CCN(C(=O)c4sc(Cl)c(Br)c4F)C[C@H]3c3ccccc3)CC2)c1=O [Example 106, 5-amino-3-[[I-[(3R,4R)-1-(4-bromo-5-chloro-3-fluoro-thiophene-2-carbonyl)-3-phenyl-piperidine-4-carbonyl]-4-hydroxy-4-piperidyl]methyl]-6-(4-fluorophenoxy)pyrimidin-4-one]	15 nM	18.6 nM	–
Nc1c(Oc2ccc(F)cc2)ncn(CC2(O)CCN(C(=O)[C@@H]3CCN(C4(c5ccccc5Cl)COC4)C[C@H]3c3ccccc3)CC2)c1=O [Example 140, 5-amino-3-[[1-((3R,4R)-1-[3-(2-chlorophenyl)oxetan-3-yl]-3-phenyl-piperidine-4-carbonyl]-4-hydroxy-4-piperidyl]methyl]-6-(4-fluorophenoxy)pyrimidin-4-one]	12 nM	20 nM	–
Cc1ccc(-c2nc(C)c(C(=O)N3CC[C@@H](C(=O)N4CC[C@](O)(Cn5cnc(Oc6ccccc6)c(N)c5=O)C(F)(F)C4)[C@H](c4ccccc4)C3)s2)cn1 [Example 119]	1.53 nM	4.3 nM	–
Cc1nccc(CN2CC[C@@H](C(=O)N3CC[C@](O)(Cn4cnc(Oc5ccc(Cl)cc5)c(N)c4=O)C(F)(F)C3)[C@H](c3ccccc3)C2)n1 [Example 168]	38.5 nM	13.8 nM	–
Cc1nc(C2CCCC2)sc1C(=O)N1CC[C@@H](C(=O)N2CCC(O)(Cn3cnc(Oc4ccc(F)cc4)c(N)c3=O)CC2)[C@H](c2ccccc2)C1 [Example 161, 5-amino-3-[[1-[(3R,4R)-1-(2-cyclopentyl-4-methyl-thiazole-5-carbonyl)-3-phenyl-piperidine-4-carbonyl]-4-hydroxy-4-piperidyl]methyl]-6-(4-fluorophenoxy)pyrimidin-4-one]	10.1 nM	3.63 nM	–
Nc1c(Oc2ccc(F)cc2)ncn(CC2(O)CCN(C(=O)[C@@H]3CCN(S(=O)(=O)c4ccc(Br)s4)C[C@H]3c3ccccc3)CC2)c1=O [Example 59]	35.8 nM	41.1 nM	–
Nc1c(Oc2ccc(F)cc2)ncn(CC2(O)CCN(C(=O)[C@@H]3CCN(C(=O)c4cncc(-n5cccc5)c4)C[C@H]3c3ccccc3)CC2)c1=O [Example 163, 5-amino-6-(4-fluorophenoxy)-3-[[4-hydroxy-1-[(3R,4R)-3-phenyl-1-(5-pyrrol-1-ylpyridine-3-carbonyl)piperidine-4-carbonyl]-4-piperidyl]methyl]pyrimidin-4-one]	9.76 nM	1.41 nM	–
Cc1ccc(-c2nc(C)c(C(=O)N3CC[C@@H](C(=O)N4CC[C@](O)(Cn5cnc(Oc6ccc(F)cc6)c(N)c5=O)C(F)(F)C4)[C@H](c4ccccc4)C3)s2)cn1 [Example 45]	3.6 nM	1.4 nM	–
Nc1c(Oc2ccc(F)cc2)ncn(CC2(O)CCN(C(=O)[C@@H]3CCN(C(=O)c4cncc(F)c4)C[C@H]3c3ccccc3)CC2)c1=O [Example 134, 5-amino-6-(4-fluorophenoxy)-3-[[1-[(3R,4R)-1-(5-fluoropyridine-3-carbonyl)-3-phenyl-piperidine-4-carbonyl]-4-hydroxy-4-piperidyl]methyl]pyrimidin-4-one]	3.7 nM	17 nM	–
Cc1nc(Br)sc1C(=O)N1CC[C@@H](C(=O)N2CCC(O)(Cn3cnc(Oc4ccc(F)cc4)c(N)c3=O)CC2)[C@H](c2ccccc2)C1 [Example 29, 5-amino-3-({1-[(3R,4R)-1-(2-bromo-4-methyl-1,3-thiazole-5-carbonyl)-3-phenylpiperidine-4-carbonyl]-4-hydroxypiperidin-4-yl}methyl)-6-(4-fluorophenoxy)pyrimidin-4(3H)-one]	7.1 nM	1.8 nM	–
Cc1nc(C2CCC2)sc1C(=O)N1CC[C@@H](C(=O)N2CCC(O)(Cn3cnc(Oc4ccc(F)cc4)c(N)c3=O)CC2)[C@H](c2ccccc2)C1 [Example 165, 5-amino-3-[[1-[(3R,4R)-1-(2-cyclobutyl-4-methyl-thiazole-5-carbonyl)-3-phenyl-piperidine-4-carbonyl]-4-hydroxy-4-piperidyl]methyl]-6-(4-fluorophenoxy)pyrimidin-4-one]	9.33 nM	2.74 nM	–

From patent US20210355106A1, “NEW AMINO-PYRIMIDONYL-PIPERIDINYL DERIVATIVES, A PROCESS FOR THEIR PREPARATION AND PHARMACEUTICAL COMPOSITIONS CONTAINING THEM” (LES LABORATOIRES SERVIER, priority 2018, published 2021)
